From patent publication US20230265116A1, “DEGRADATION OF (EGFR) BY CONJUGATION OF EGFR INHIBITORS WITH E3 LIGASE LIGAND AND METHODS OF USE” (BEIGENE, LTD., priority 2020, published 2023) come the findings set out here.

What all share (format): cell-based
In test [1] the test system is EGFR Del19/T790M/C797S (H1975-clone #28). Nature of the test: EGFR degradation HTRF assay, H1975-clone #28 DTC cells. As to conditions: H1975 # 28 DTC cells; for DC50: EGFR degradation, IC50 (DC50) from curve fit, read-out: DC50(nM) H1975 # 28 DTC; for Dmax (%) H1975 # 28 DTC: maximum percentage of inhibition (degradation). The method in brief:
(§1)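 Cells were dosed on day 2 with an 8-point, 5-fold dilution series starting at 10 uM final and incubated 16h at 37° C. After lysis for 1 hour, HTRF antibodies were added overnight at room temperature and the plate was read at 665/620 nm. Degradation was normalised to DMSO wells and fitted for DC50 and Dmax.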
For orientation: In TR-FRET formats the signal depends on donor and acceptor labels being close together.

The test system of test [2] is EGFR Del19/C797S (H1975-clone #23). Nature of the test: EGFR degradation HTRF assay, H1975-clone #23 DC cells. As to conditions: 16h treatment; for H1975 #23 DC Dmax (%): maximum percentage of degradation; for DC50: H1975 #23 DC, read-out: H1975 #23 DC DC50. The method in brief:
as §1

The target in test [3] is T1, EGFR L858R/C797S (BaF3 LC cells) (Homo sapiens, UniProt P00533, C797S/L858R).
T1 construct: expressed in transfected cells; host or cells: BaF3
Nature of the test: EGFR degradation HTRF assay, BaF3 LC cells. The conditions noted are these: BaF3 LC, 16h treatment; for Dmax: maximum percentage of degradation, read-out: BaF3 LC Dmax (%); for DC50: read-out: BaF3 LC DC50.

In test [4] the target is T2, EGFR L858R/T790M/C797S (BaF3-LTC cells) (Homo sapiens, UniProt P00533, C797S/L858R/T790M).
T2 construct: expressed in transfected cells; host or cells: BaF3
Put plainly: EGFR degradation HTRF assay, BaF3-LTC cells. As to conditions: BaF3-LTC cells; for DC50: EGFR degradation, IC50 (DC50) from curve fit, read-out: DC50(nM) BaF3-LTC; for Dmax: read-out: Dmax (%) BaF3-LTC. The method in brief: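 Cells treated 16 h at 37 °C, 5% CO2 in medium with 0.2% DMSO; top final concentration 10 uM, 5-fold dilution, 8 doses. Lysates read by HTRF (665/620 nm); degradation % versus DMSO high control, DC50 from four-parameter fit, Dmax as maximal degradation.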

The mark [5] stands for this setting: maximum percentage of inhibition (degradation).

T2 sequence (P00533 25-1210 T790M/C797S/L858R): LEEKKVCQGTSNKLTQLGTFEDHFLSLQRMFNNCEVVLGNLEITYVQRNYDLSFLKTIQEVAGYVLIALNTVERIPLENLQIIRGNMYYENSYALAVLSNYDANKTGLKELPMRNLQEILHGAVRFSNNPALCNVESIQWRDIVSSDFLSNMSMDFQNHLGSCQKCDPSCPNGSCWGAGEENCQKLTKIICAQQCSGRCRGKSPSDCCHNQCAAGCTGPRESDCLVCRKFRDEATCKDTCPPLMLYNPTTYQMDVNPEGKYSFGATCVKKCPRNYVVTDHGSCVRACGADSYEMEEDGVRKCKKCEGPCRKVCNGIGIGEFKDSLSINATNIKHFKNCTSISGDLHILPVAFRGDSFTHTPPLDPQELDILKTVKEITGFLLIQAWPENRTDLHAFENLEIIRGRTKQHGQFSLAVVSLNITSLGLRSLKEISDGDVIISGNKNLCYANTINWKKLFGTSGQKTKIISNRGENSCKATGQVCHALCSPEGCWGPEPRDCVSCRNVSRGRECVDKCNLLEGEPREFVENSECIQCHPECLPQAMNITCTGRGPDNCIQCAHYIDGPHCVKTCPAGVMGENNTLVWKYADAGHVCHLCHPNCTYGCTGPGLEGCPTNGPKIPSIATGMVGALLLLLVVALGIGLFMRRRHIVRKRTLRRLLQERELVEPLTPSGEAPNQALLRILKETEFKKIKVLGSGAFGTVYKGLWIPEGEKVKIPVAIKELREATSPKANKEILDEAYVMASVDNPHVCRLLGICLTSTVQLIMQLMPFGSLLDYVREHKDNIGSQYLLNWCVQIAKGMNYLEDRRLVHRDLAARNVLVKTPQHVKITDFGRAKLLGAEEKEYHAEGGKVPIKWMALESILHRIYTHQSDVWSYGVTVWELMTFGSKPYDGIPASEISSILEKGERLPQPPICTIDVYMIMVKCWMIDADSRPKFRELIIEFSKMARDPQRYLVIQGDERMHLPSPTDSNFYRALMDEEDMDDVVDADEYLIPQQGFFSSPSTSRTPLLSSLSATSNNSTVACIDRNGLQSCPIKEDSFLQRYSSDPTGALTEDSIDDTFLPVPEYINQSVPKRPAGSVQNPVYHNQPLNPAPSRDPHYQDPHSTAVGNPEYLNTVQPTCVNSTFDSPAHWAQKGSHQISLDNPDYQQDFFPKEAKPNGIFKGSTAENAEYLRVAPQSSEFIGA
T1 sequence (P00533 25-1210 C797S/L858R): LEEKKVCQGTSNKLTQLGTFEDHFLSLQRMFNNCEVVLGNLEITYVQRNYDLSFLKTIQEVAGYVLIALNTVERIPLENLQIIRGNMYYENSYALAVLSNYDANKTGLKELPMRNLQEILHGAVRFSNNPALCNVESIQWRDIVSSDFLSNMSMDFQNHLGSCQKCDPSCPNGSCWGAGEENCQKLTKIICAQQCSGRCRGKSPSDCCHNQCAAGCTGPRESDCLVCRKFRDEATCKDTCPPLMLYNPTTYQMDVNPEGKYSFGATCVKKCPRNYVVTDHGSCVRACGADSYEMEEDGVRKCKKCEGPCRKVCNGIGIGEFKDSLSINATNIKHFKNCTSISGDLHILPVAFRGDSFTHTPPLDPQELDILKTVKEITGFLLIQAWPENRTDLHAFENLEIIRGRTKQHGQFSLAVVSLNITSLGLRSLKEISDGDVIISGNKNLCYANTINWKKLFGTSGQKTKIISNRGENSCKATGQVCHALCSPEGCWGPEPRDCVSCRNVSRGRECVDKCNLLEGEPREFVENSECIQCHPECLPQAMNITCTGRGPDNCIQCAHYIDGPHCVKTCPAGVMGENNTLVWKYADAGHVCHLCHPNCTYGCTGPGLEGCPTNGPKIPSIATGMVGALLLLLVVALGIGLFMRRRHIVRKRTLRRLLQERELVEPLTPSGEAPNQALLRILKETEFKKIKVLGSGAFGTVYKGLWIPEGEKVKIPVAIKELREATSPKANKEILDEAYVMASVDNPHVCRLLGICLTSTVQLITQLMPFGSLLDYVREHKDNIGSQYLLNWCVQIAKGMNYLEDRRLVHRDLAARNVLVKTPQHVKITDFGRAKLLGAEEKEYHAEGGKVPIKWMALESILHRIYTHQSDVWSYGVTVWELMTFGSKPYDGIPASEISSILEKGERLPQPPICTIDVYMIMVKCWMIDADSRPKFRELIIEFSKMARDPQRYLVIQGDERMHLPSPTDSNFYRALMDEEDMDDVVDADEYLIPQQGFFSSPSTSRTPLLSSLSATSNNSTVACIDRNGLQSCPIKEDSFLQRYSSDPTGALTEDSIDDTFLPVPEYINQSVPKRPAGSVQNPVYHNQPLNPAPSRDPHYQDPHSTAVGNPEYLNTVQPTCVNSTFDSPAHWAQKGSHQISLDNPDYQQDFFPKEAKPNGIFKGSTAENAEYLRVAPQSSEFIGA

The term DC50 denotes the concentration giving 50% degradation. As usually defined, the Dmax is the greatest extent of degradation seen. For the compound `CCOc1cc(N2CCC(N3CCN(CCc4cc5oc(=O)n(C6CCC(=O)NC6=O)c5cc4F)CC3)CC2)c(CC)cc1Nc1ncc(Br)c(Nc2ccc3nc(CC)ccc3c2P(C)(C)=O)n1` (stereo not shown) [Example 492, 3-(6-(2-(4-(1-(4-((5-bromo-4-((5-(dimethylphosphoryl)-2-ethylquinolin-6-yl)amino)pyrimidin-2-yl)amino)-5-ethoxy-2-ethylphenyl)piperidin-4-yl)piperazin-1-yl)ethyl)-5-fluoro-2-oxobenzo[d]oxazol-3(2H)-yl)piperidine-2,6-dione], the half-maximal degradation concentration (DC50) in test [1] was determined as 0.605 nM; in test [2], 3.07 nM; in test [3] it was 4.28 nM; in test [4], 3.39 nM. In test [1], the “Dmax (%) H1975 # 28 DTC” value was 70.88%. In test [2], the “H1975 #23 DC Dmax (%)” value was 51.44%. Moreover, the Dmax came out at 79.5% in test [3] and 95.5% in test [4] (setting [5]).

Turning to `CCOc1cc(N2CCC(N3CCN(CCc4ccc5c(c4)oc(=O)n5C4CCC(=O)NC4=O)CC3)CC2)c(CC)cc1Nc1ncc(Br)c(Nc2ccc3nc(C)ccc3c2P(C)(C)=O)n1` (stereo not shown) [Example 532], in test [1], the DC50 came out at 0.642 nM and the “Dmax (%) H1975 # 28 DTC” value was 70.91%. In test [2], the “H1975 #23 DC Dmax (%)” value is recorded as 52.49% and the DC50 turned out to be 0.591 nM. In addition, in test [3], the Dmax stood at 88.1% and the DC50 was determined as 3.84 nM. In addition, the DC50 in test [4] worked out at 2.96 nM. Moreover, the “Dmax (%) BaF3-LTC” value in test [4] (setting [5]) came to 95.58%.

Consider `CCOc1cc(N2CCC(N3CCN(CCCc4cc(F)cc5c4oc(=O)n5C4CCC(=O)NC4=O)CC3)CC2)c(CC)cc1Nc1ncc(Br)c(Nc2ccc3nc(CC)ccc3c2P(C)(C)=O)n1` (stereo not shown) [Example 496, 3-(7-(3-(4-(1-(4-((5-bromo-4-((5-(dimethylphosphoryl)-2-ethylquinolin-6-yl)amino)pyrimidin-2-yl)amino)-5-ethoxy-2-ethylphenyl)piperidin-4-yl)piperazin-1-yl)propyl)-5-fluoro-2-oxobenzo[d]oxazol-3(2H)-yl)piperidine-2,6-dione], for which the DC50 in test [1] is 0.92 nM; in test [2], 0.787 nM; in test [3] it was 2.23 nM; in test [4], 2.3 nM. Further, the “Dmax (%) H1975 # 28 DTC” value in test [1] was determined as 75.32%. Also, in test [2], the “H1975 #23 DC Dmax (%)” value was 95.59%. For the same compound, the figures for the Dmax in test [3] and in test [4] (setting [5]) were 91.3% and 85.5%, respectively.

Take `CCc1ccc2c(P(C)(C)=O)c(Nc3nc(Nc4cc(C)c(N5CCC(N6CCN(CCc7cccc8c7n(C)c(=O)n8C7CCC(=O)NC7=O)CC6)CC5)cc4OC4CC4)ncc3Br)ccc2n1` (stereo not shown) [Example 584, 3-(4-(2-(4-(1-(4-((5-bromo-4-((5-(dimethylphosphoryl)-2-ethylquinolin-6-yl)amino)pyrimidin-2-yl)amino)-5-cyclopropoxy-2-methylphenyl)piperidin-4-yl)piperazin-1-yl)ethyl)-3-methyl-2-oxo-2,3-dihydro-1H-benzo[d]imidazol-1-yl)piperidine-2,6-dione]: the half-maximal degradation concentration (DC50) in test [1] was 0.634 nM; in test [2] it was 2.7 nM; in test [3], 4.9 nM; in test [4], 2.72 nM. Also, the “Dmax (%) H1975 # 28 DTC” value in test [1] came to 79.5%. In test [2], the “H1975 #23 DC Dmax (%)” value is 70.66%.

As to `CCOc1cc(N2CCC(N3CCN(CCc4cccc5c4C4(CC4)C(=O)N5C4CCC(=O)NC4=O)CC3)CC2)c(CC)cc1Nc1ncc(Br)c(Nc2ccc3nc(CC)ccc3c2P(C)(C)=O)n1` (stereo not shown) [Example 571, 3-(4′-(2-(4-(1-(4-((5-bromo-4-((5-(dimethylphosphoryl)-2-ethylquinolin-6-yl)amino)pyrimidin-2-yl)amino)-5-ethoxy-2-ethylphenyl)piperidin-4-yl)piperazin-1-yl)ethyl)-2′-oxospiro[cyclopropane-1,3′-indolin]-1′-yl)piperidine-2,6-dione], the 50% degradation concentration (DC50) in test [1] was 0.946 nM; in test [2], 3.05 nM; in test [3] it was 13.2 nM; in test [4], 3.49 nM. Besides, the “Dmax (%) H1975 # 28 DTC” value in test [1] came out at 77.08%. For the same compound, the “H1975 #23 DC Dmax (%)” value in test [2] is 75.83%.

Turning to `CCOc1cc(N2CCC(N3CCN(CCc4cc(F)c([C@H]5CCC(=O)NC5=O)c(F)c4)CC3)CC2)c(CC)cc1Nc1ncc(Br)c(Nc2ccc3nc(CC)ncc3c2P(C)(C)=O)n1` [Example 460, (R)-3-(4-(2-(4-(1-(4-((5-bromo-4-((5-(dimethylphosphoryl)-2-ethylquinazolin-6-yl)amino)pyrimidin-2-yl)amino)-5-ethoxy-2-ethylphenyl)piperidin-4-yl)piperazin-1-yl)ethyl)-2,6-difluorophenyl)piperidine-2,6-dione], the DC50 is 2.43 nM in test [1], 3.11 nM in test [2], 37.3 nM in test [3] and 16.4 nM in test [4]. Besides, in test [1], the “Dmax (%) H1975 # 28 DTC” value was 86%. The “H1975 #23 DC Dmax (%)” value in test [2] is on record as 82.75%.

Regarding `CCOc1cc(N2CCC(N3CCN(C(=O)[C@@H]4CCN(c5cc(F)c([C@H]6CCC(=O)NC6=O)c(F)c5)C4)CC3)CC2)c(CC)cc1Nc1ncc(Br)c(Nc2ccc3nc(C)ccc3c2P(C)(C)=O)n1` [Example 531, (R)-3-(4-((R)-3-(4-(1-(4-((5-bromo-4-((5-(dimethylphosphoryl)-2-methylquinolin-6-yl)amino)pyrimidin-2-yl)amino)-5-ethoxy-2-ethylphenyl)piperidin-4-yl)piperazine-1-carbonyl)pyrrolidin-1-yl)-2,6-difluorophenyl)piperidine-2,6-dione], the DC50 in test [1] amounted to 1.55 nM; in test [2] it was 9.42 nM; in test [3] it was 51.8 nM; in test [4], 7.03 nM. For the same compound, in test [1], the “Dmax (%) H1975 # 28 DTC” value turned out to be 74.06%. Besides, the “H1975 #23 DC Dmax (%)” value in test [2] is recorded as 53.36%. Besides, the results for the maximal degradation (Dmax) in test [3] and in test [4] (setting [5]) were 83.5% and 96.4%, respectively.

On to `CCOc1cc(N2CCC(N3CCN(CCc4cccc5c4C(C)(C)C(=O)N5C4CCC(=O)NC4=O)CC3)CC2)c(CC)cc1Nc1ncc(Br)c(Nc2ccc3c(=O)n(CC)ncc3c2P(C)(C)=O)n1` (stereo not shown) [Example 501, 3-(4-(2-(4-(1-(4-((5-bromo-4-((5-(dimethylphosphoryl)-2-ethyl-1-oxo-1,2-dihydrophthalazin-6-yl)amino)pyrimidin-2-yl)amino)-5-ethoxy-2-ethylphenyl)piperidin-4-yl)piperazin-1-yl)ethyl)-3,3-dimethyl-2-oxoindolin-1-yl)piperidine-2,6-dione], for which the half-maximal degradation concentration (DC50) is 0.759 nM in test [1], 3.29 nM in test [2], 1.49 nM in test [3] and 3.34 nM in test [4]. The “Dmax (%) H1975 # 28 DTC” value in test [1] stood at 85.93%. Moreover, the “H1975 #23 DC Dmax (%)” value in test [2] is 65.52%.

For the compound `CCc1cc(Nc2ncc(Br)c(Nc3ccc4nc(C)ccc4c3P(C)(C)=O)n2)c(OC)cc1N1CCC(N2CCN(CCc3ccc4c(c3)oc(=O)n4C3CCC(=O)NC3=O)CC2)CC1` (stereo not shown) [Example 490, 3-(6-(2-(4-(1-(4-((5-bromo-4-((5-(dimethylphosphoryl)-2-methylquinolin-6-yl)amino)pyrimidin-2-yl)amino)-2-ethyl-5-methoxyphenyl)piperidin-4-yl)piperazin-1-yl)ethyl)-2-oxobenzo[d]oxazol-3(2H)-yl)piperidine-2,6-dione], the DC50 in test [1] worked out at 0.2 nM; in test [2] it was 0.974 nM; in test [3], 2.41 nM; in test [4] it was 1.3 nM. For the same compound, the “Dmax (%) H1975 # 28 DTC” value in test [1] turned out to be 80.5%. Further, in test [2], the “H1975 #23 DC Dmax (%)” value is given as 64.67%. Besides, the Dmax in test [3] was 95.7%; in test [4] (setting [5]) it was 92.8%.
